PubChem BioAssay (NCI)
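These data come from cells grown in 96-well plates and exposed to compound for 48 hours at five concentrations. TGI denotes the concentration required for complete inhibition of growth.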

Key:
Assay in all cases: NCI anticancer screen, dose series, 48 h
786-0 renal = system: 786-0 renal
ACHN renal = system: ACHN renal
HOP-92 NSCLC = system: HOP-92 NSCLC
MALME-3M melanoma = system: MALME-3M melanoma
MDA-MB-231 breast = system: MDA-MB-231 breast
NCI-H23 lung = system: NCI-H23 lung
NCI/ADR-RES ovarian = system: NCI/ADR-RES ovarian
OVCAR-3 ovarian = system: OVCAR-3 ovarian
OVCAR-4 ovarian = system: OVCAR-4 ovarian
OVCAR-5 ovarian = system: OVCAR-5 ovarian
OVCAR-8 ovarian = system: OVCAR-8 ovarian
PC-3 prostate = system: PC-3 prostate
SF-268 CNS = system: SF-268 CNS
SK-MEL-2 melanoma = system: SK-MEL-2 melanoma
SK-MEL-28 melanoma = system: SK-MEL-28 melanoma
SK-OV-3 ovarian = system: SK-OV-3 ovarian
T-47D breast = system: T-47D breast
TK-10 renal = system: TK-10 renal
UO-31 renal = system: UO-31 renal

Compound	TGI (786-0 renal)	TGI (ACHN renal)	TGI (HOP-92 NSCLC)	TGI (MALME-3M melanoma)	TGI (MDA-MB-231 breast)	TGI (NCI-H23 lung)	TGI (NCI/ADR-RES ovarian)	TGI (OVCAR-3 ovarian)	TGI (OVCAR-4 ovarian)	TGI (OVCAR-5 ovarian)	TGI (OVCAR-8 ovarian)	TGI (PC-3 prostate)	TGI (SF-268 CNS)	TGI (SK-MEL-2 melanoma)	TGI (SK-MEL-28 melanoma)	TGI (SK-OV-3 ovarian)	TGI (T-47D breast)	TGI (TK-10 renal)	TGI (UO-31 renal)
O=C1NC(N2CCCC(CO)C2)=N/C1=C\c1ccccc1 (configuration not stated)	> 100 µM	> 100 µM	> 100 µM	> 100 µM	> 100 µM	> 100 µM	> 100 µM	> 100 µM	> 100 µM	> 100 µM	> 100 µM	> 100 µM	> 100 µM	> 100 µM	> 100 µM	> 100 µM	> 100 µM	> 100 µM	> 100 µM
O=C(/C=C/c1ccc(OCc2ccccc2)cc1)NCc1ccc(C(=O)NCCc2c[nH]c3ccccc23)cc1	16.7 µM	> 100 µM	61.1 µM	43.3 µM	61.1 µM	38.8 µM	> 100 µM	> 100 µM	> 48.4 µM	69.4 µM	31.7 µM	55 µM	52.4 µM	> 82.6 µM	> 100 µM	44.4 µM	> 100 µM	> 43 µM	> 100 µM
O=C(O)c1nc2ccc(Cl)cc2[nH]c1=O	> 100 µM	> 100 µM	> 100 µM	> 100 µM	> 100 µM	> 100 µM	> 100 µM	> 100 µM	> 100 µM	> 100 µM	> 100 µM	> 100 µM	> 100 µM	> 100 µM	> 100 µM	> 100 µM	> 100 µM	> 100 µM	> 100 µM
CNCCCNC(=S)Cn1cc(C)c(=O)[nH]c1=O	> 100 µM	> 74.3 µM	> 100 µM	> 100 µM	> 100 µM	> 81.8 µM	> 100 µM	> 100 µM	> 100 µM	> 100 µM	> 100 µM	> 100 µM	> 100 µM	> 74.4 µM	> 75.4 µM	> 85.7 µM	> 100 µM	> 100 µM	> 86.7 µM
COC(=O)[C@H](Cc1ccccc1)NC(=O)N(CCC#N)CCCCN(CCC#N)C(=O)N[C@@H](Cc1ccccc1)C(=O)OC	> 100 µM	> 100 µM	> 100 µM	> 100 µM	> 100 µM	> 100 µM	> 100 µM	> 100 µM	> 100 µM	> 100 µM	> 100 µM	> 100 µM	> 100 µM	> 100 µM	> 100 µM	> 100 µM	> 100 µM	> 100 µM	> 100 µM
O=C1c2c(Br)sc(Br)c2[C@@H](Cl)[C@H]1Cl	52.5 µM	37.4 µM	42.5 µM	82.7 µM	36.8 µM	94 µM	> 100 µM	30 µM	37.4 µM	43 µM	42.5 µM	38.9 µM	39.8 µM	37.7 µM	59.3 µM	36.3 µM	44.8 µM	87.3 µM	40.4 µM
NC(=O)CN1CC(C2=C(O)CN(CC(N)=O)C2=O)=CC1=O	> 100 µM	> 100 µM	> 100 µM	> 100 µM	> 100 µM	> 100 µM	> 100 µM	> 100 µM	> 100 µM	> 100 µM	> 100 µM	> 100 µM	> 100 µM	> 100 µM	> 100 µM	> 100 µM	> 100 µM	> 100 µM	> 100 µM
Cn1c(=O)c2sc3c4sc5c(=O)n(C)c6ccccc6c5c4sc3c2c2ccccc21	> 100 µM	> 100 µM	> 100 µM	> 100 µM	> 100 µM	> 100 µM	> 100 µM	> 100 µM	> 100 µM	> 100 µM	> 100 µM	> 100 µM	> 100 µM	> 100 µM	> 100 µM	> 100 µM	> 100 µM	> 100 µM	> 100 µM
